The record followed here is patent US20240043470A1, “MACROCYCLIC COMPOUNDS AS PROTEASOME INHIBITORS” (CORNELL UNIVERSITY, priority 2017, published 2024).

In this test the target is β5c of hu c-20S (Homo sapiens (Human), UniProt P20618+P28074). In words: IC50 determination against β5c of human constitutive proteasome (suc-LLVY-AMC hydrolysis).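 Note: IC50 obtained by fitting initial reaction velocities to a dose-dependent inhibition model, with SDS present as proteasome activator.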 In kind it is biochemical. The settings on record: 0.2 nM c-20S, 25 μM suc-LLVY-AMC.
By IC50 is commonly meant the concentration that gives 50% inhibition. A high value points to a need for much substance. `COCCNC(=O)[C@@H]1Cc2cccc(c2)Oc2cccc(c2)C[C@H](NC(=O)c2cccnc2)C(=O)N[C@@H](CCc2ccccc2)C(=O)N1` [Compound 1-34] yielded an IC50 of 2.85 µM. Compound `CCCN(CCC)[C@H]1Cc2cccc(c2)Oc2cccc(c2)C[C@@H](C(=O)NC2CCCC2)NC(=O)[C@H](CCc2ccccc2)NC1=O` [Compound 1-21] had an IC50 of 3.4 µM. In turn, `CCC(=O)N[C@H]1Cc2cccc(c2)Oc2cccc(c2)C[C@@H](C(=O)NCc2ccccn2)NC(=O)[C@H](CCc2ccccc2)NC1=O` [Compound 1-48] showed an IC50 of 10.2 µM. In the case of `CC(C)CNC(=O)[C@@H]1Cc2cccc(c2)Oc2cccc(c2)C[C@H](NC(=O)c2cn(C)cn2)C(=O)N[C@@H](CCc2ccccc2)C(=O)N1` [Compound 1-32], the IC50 was found to be 8.86 µM. Then `CCNC(=O)[C@@H]1Cc2cccc(c2)Oc2cccc(c2)C[C@H](N2CCCCC2)C(=O)N[C@@H](CCc2ccccc2)C(=O)N1` [Compound 1-28], with 2.47 µM; and `CS(=O)(=O)N[C@H]1Cc2cccc(c2)Oc2cccc(c2)C[C@@H](C(N)=O)NC(=O)[C@H](CCc2ccccc2)NC1=O` [Compound 1-35], with 3 µM. Compound `CCN(CC)[C@H]1Cc2cccc(c2)Oc2cccc(c2)C[C@@H](C(=O)NC(C)C)NC(=O)[C@H](CCc2ccccc2)NC1=O` [Compound 1-25] came in with an IC50 of 1.63 µM. Compound `O=C(NCC(F)(F)F)[C@@H]1CCCCOc2cccc(c2)C[C@H](N2CCCS2(=O)=O)C(=O)N[C@@H](CCN2CCOCC2)C(=O)N1` [Compound 3-19] yielded an IC50 of 45 µM. Turning to `CCN(CC)[C@H]1Cc2cccc(c2)Oc2cccc(c2)C[C@@H](C(=O)NCC(C)C)NC(=O)[C@H](CCc2ccccc2)NC1=O` [Compound 1-29], the IC50 was determined as 2.2 µM. `CS(=O)(=O)N[C@H]1Cc2cccc(c2)Oc2cccc(c2)C[C@@H](C(=O)NCC2CC2)NC(=O)[C@H](CCc2ccccc2)NC1=O` [Compound 1-08] returned an IC50 of 1.78 µM.

`COCC(=O)N[C@H]1Cc2cccc(c2)Oc2cccc(c2)C[C@@H](C(=O)NCC2CCCO2)NC(=O)[C@H](CCc2ccccc2)NC1=O` (stereo partly drawn) [Compound 1-47] registered an IC50 of 9.7 µM. Under `CS(=O)(=O)CCNC(=O)[C@@H]1Cc2cccc(c2)Oc2cccc(c2)C[C@H](NC(=O)CO)C(=O)N[C@@H](CCc2ccccc2)C(=O)N1` [Compound 1-46] stands 9.5 µM; under `O=C(CO)N[C@H]1Cc2cccc(c2)Oc2cccc(c2)C[C@@H](C(=O)NCc2ccccc2)NC(=O)[C@H](CCc2ccccc2)NC1=O` [Compound 1-11], 1.93 µM; under `CCNC(=O)[C@@H]1Cc2cccc(c2)Oc2cccc(c2)C[C@H](N(CC)CC)C(=O)N[C@@H](CCc2ccccc2)C(=O)N1` [Compound 1-27], 1.14 µM. Take `O=C(N[C@H]1Cc2cccc(c2)Oc2cccc(c2)C[C@@H](C(=O)NCCC(F)(F)F)NC(=O)[C@H](CCc2ccccc2)NC1=O)c1ccccc1` [Compound 1-41]: it took 5.7 µM to reach half-maximal inhibition (IC50). `CCN(CC)[C@H]1Cc2cccc(c2)Oc2cccc(c2)C[C@@H](C(=O)NCc2cnn(C)c2)NC(=O)[C@H](CCc2ccccc2)NC1=O` [Compound 1-02]: the IC50 came out at 0.55 µM. Regarding `CCN(CC)C(=O)[C@@H]1Cc2cccc(c2)Oc2cccc(c2)C[C@H](NC(=O)c2ccncc2)C(=O)N[C@@H](CCc2ccccc2)C(=O)N1` [Compound 1-36], half-maximal inhibition (IC50) was put at 3.04 µM.

Consider `CCC(=O)N[C@H]1Cc2cccc(c2)Oc2cccc(c2)C[C@@H](c2nc3ccccc3o2)NC(=O)[C@H](CCc2ccccc2)NC1=O` [Compound 1-42], for which the IC50 was found to be 5.93 µM. In the case of `CN1C(=O)[C@H](CCc2ccccc2)NC(=O)[C@@H](N2CCCC2=O)Cc2cccc(c2)OCCCC[C@H]1C(=O)NCC(F)(F)F` [Compound 3-33], the IC50 was determined as 25.8 µM.

On to `CCC(=O)N[C@H]1Cc2cccc(c2)Oc2cccc(c2)C[C@@H](C(=O)NC2CCCC2)NC(=O)[C@H](CCc2ccccc2)NC1=O` [Compound 1-19], for which the IC50 was 2.8 µM. Regarding `CC(C)CNC(=O)[C@@H]1Cc2cccc(c2)Oc2cccc(c2)C[C@H](NC(=O)c2ccccc2)C(=O)N[C@@H](CCc2ccccc2)C(=O)N1` [Compound 1-31], the IC50 amounted to 5 µM. The compound `O=C(N[C@H]1Cc2cccc(c2)Oc2cccc(c2)C[C@@H](C(=O)N2CCCC2)NC(=O)[C@H](CCc2ccccc2)NC1=O)C1COC1` [Compound 1-44] registered an IC50 of 7.52 µM. Then `CCCN(CCC)[C@H]1Cc2cccc(c2)Oc2cccc(c2)C[C@@H](C(=O)NCc2ccccc2)NC(=O)[C@H](CCc2ccccc2)NC1=O` [Compound 1-09], with 0.503 µM; and `O=C(N[C@H]1Cc2cccc(c2)Oc2cccc(c2)C[C@@H](C(=O)NCc2ccccc2)NC(=O)[C@H](CCc2ccccc2)NC1=O)c1ccccc1` [Compound 1-15], with 100 µM.

In the case of `O=C(N[C@H]1Cc2cccc(c2)Oc2cccc(c2)C[C@@H](C(=O)NC2CCCC2)NC(=O)[C@H](CCc2ccccc2)NC1=O)c1ccccc1` [Compound 1-23], it took 6.21 µM to reach half-maximal inhibition (IC50).

`COCCC(=O)N[C@H]1Cc2cccc(c2)Oc2cccc(c2)C[C@@H](C(=O)NCc2cccnc2)NC(=O)[C@H](CCc2ccccc2)NC1=O` [Compound 1-33] came in with an IC50 of 2.25 µM.

Take `COCCC(=O)N[C@H]1Cc2cccc(c2)Oc2cccc(c2)C[C@@H](C(=O)NCCC(F)(F)F)NC(=O)[C@H](CCc2ccccc2)NC1=O` [Compound 1-45]: it took 7.7 µM to reach half-maximal inhibition (IC50).

Take `COC(=O)N[C@H]1Cc2cccc(c2)Oc2cccc(c2)C[C@@H](C(=O)NCC2CC2)NC(=O)[C@H](CCc2ccccc2)NC1=O` [Compound 1-06]: it took 0.542 µM to reach half-maximal inhibition (IC50).

As to `CN(C)CCC(=O)N[C@H]1Cc2cccc(c2)Oc2cccc(c2)C[C@@H](C(=O)NCC2CCCCN2C)NC(=O)[C@H](CCc2ccccc2)NC1=O` (stereo partly drawn) [Compound 1-39], the IC50 was determined as 4.57 µM. On to `O=C1CCc2cccc(c2)Oc2cccc(c2)C[C@@H](C(=O)NCc2ccccc2F)NC(=O)[C@H](CCN2CCOCC2)N1` [Compound 1-91], for which the midpoint of inhibition, the IC50, lay at 0.47 µM.

Compound `CCC(=O)N[C@H]1Cc2cccc(c2)Oc2cccc(c2)C[C@@H](C(=O)NCC(C)C)NC(=O)[C@H](CCc2ccccc2)NC1=O` [Compound 1-30] yielded an IC50 of 4.21 µM. `CN1CCC(C(=O)N[C@H]2Cc3cccc(c3)Oc3cccc(c3)C[C@@H](C(=O)NCc3cnn(C)c3)NC(=O)[C@H](CCc3ccccc3)NC2=O)CC1` [Compound 1-03, (5S,8S,11S)—N-((1-Methyl-1H-pyrazol-4-yl)methyl)-11-(1-methylpiperidine-4-carboxamido)-7,10-dioxo-8-phenethyl-2-oxa-6,9-diaza-1,3(1,3)-dibenzenacyclododecaphane-5-carboxamide]: the IC50 is 1 µM. Under `CCC(=O)N[C@H]1Cc2cccc(c2)Oc2cccc(c2)C[C@@H](C(=O)NCC2CC2)NC(=O)[C@H](CCc2ccccc2)NC1=O` [Compound 1-07] stands 1.12 µM; under `CC1(CNC(=O)[C@@H]2CCCCOc3cccc(c3)CCC(=O)N[C@@H](CCN3CCOCC3)C(=O)N2)CC1` [Compound 3-27], 34.6 µM; under `O=C(N[C@H]1Cc2cccc(c2)Oc2cccc(c2)C[C@@H](C(=O)NCC2CCOCC2)NC(=O)[C@H](CCc2ccccc2)NC1=O)c1cccnn1` [Compound 1-49], 11.9 µM. Then `CC1CCCN1[C@H]1Cc2cccc(c2)Oc2cccc(c2)C[C@@H](C(=O)NCc2ccccc2)NC(=O)[C@H](CCc2ccccc2)NC1=O` (stereo partly drawn) [Compound 1-10], with 1.3 µM.
